For data set [1], the system named is MDA-MB-435 human breast carcinoma. Description: Anchorage Dependent Growth Monolayer Assay (ADGMA), MTS readout. It counts as cell-based. The note with it: 3-day exposure, MDA-MB-435 cells, read-out: IC50 values (average ± S.D.) MDA-MB-435. The text has this: (§1) As indicated above, all of the compounds of formula I, and their corresponding pharmaceutically acceptable acid addition salts, are anti-tumor agents and are, therefore, useful in inhibiting the growth of various lymphomas, sarcomas, carcinomas, myelomas, and leukemia cell lines. […] This assay was adapted from the 60 cell line assay used by the National Cancer Institute (NCl) with the following modifications: 1) cell lines representative for the important tumor types, viz., MDA-MB-435 human breast, A549 non-small cell lung, H1299 lung, HCT-116 colon and PC-3 prostate carcinomas, and U2OS osteosarcomas were utilized; and 2) a tetrazolium derivative, viz., 3-(4,5-dimethylthiazol-2-yl)-5-(3-carboxymethoxyphenyl)-2-(4-sulfophenyl)-2H-tetrazolium, inner salt (MTS), was utilized to determine cell density.
(§2) The ADGMA compares the number of viable cells following a 3-day exposure to a test compound relative to a number of cells present at the time the test compound was added. […] The absorbance at 490 nm (A490) of the formazan derivative is proportional to the number of viable cells. The IC50 for a test compound is the concentration of compound required to reduce the final cell number to 50% of the final control cell number. If cell proliferation is inhibited, the assay further defines compounds as cytostatic (cell number after 3-day compound incubation >cell number at time of compound addition) or cytotoxic (cell number after 3-day compound incubation <cell number at time of compound addition).
(§3) The MDA-MB-435 human breast carcinoma and the A549 non-small cell lung carcinoma lines were obtained from the American Type Culture Collection (ATCC) and used between passages 4-20 following thawing. MDA-MB-435 human breast carcinoma and A549 non-small cell lung carcinoma cells were maintained and plated in DME/F12 medium containing 10% fetal bovine serum, 15 mM HEPES (pH=7.4), 100 units/mL penicillin, and 100 µg/mL streptomycin.
(§4) Cell lines are trypsinized and counted using a Coulter counter to determine plating densities. Cells are then plated in their respective maintenance media (100 µL/well) in 96 well plates at the following densities: MDA-MB-435 and U2OS, 3,000 cells/well; A549 and HCT-116, 700 cells/well; H1299, 1,000 cells/well; and PC-3, 2500 cells/well. The number of cells plates as determined in preliminary experiments, results in cell densities of 75-90% of confluency by 4 days after plating. Initial cell densities, assayed one day after plating, are roughly 0.15-0.20 absorbance units greater than the media blank. Ninety-six well plates are seeded on day 0 and the test compounds are added on day 1. A control plate is created for each cell line that receives media only in row A and cells in row B. One day following plating, test compounds are added (in a final volume of 100 µL) to the test plates. Control plates receive 10 µL MTS mixture (prepared fresh on day of addition to cell plates at a ratio of 10 µL of a 0.92 mg/mL solution of PMS to a 190 µL of a 2 mg/mL solution of MTS) and 100 µL media. A490 of control plates is read 4 h after MTS addition to determine initial cell density values for each cell line. Three days after addition of test compound, 10 µL/well of MTS mixture is added to the test plates and A490 is read 4 h later. A490 values for wells containing cells are corrected for media absorbance, then normalized to initial density readings to determine percent net growth. IC50 values are determined from graphs of percent net growth as a function of compound concentration. Percent net growth is calculated as (Cell + Drug A490 - Initial A490/Cell + Drug Vehicle A490 - Initial A490) x 100%.

The subject of data set [2] is U2OS osteosarcoma. The data set is described as above. It is filed as cell-based. Conditions: 3-day exposure, U2OS cells, read-out: IC50 values (average ± S.D.) U2OS.
Source text: as §1, §2
(§5) The H1299 lung, HCT-116 colon, and PC-3 prostate carcinoma cell lines, and U2OS osteosarcoma cell line were obtained from the American Type Culture Collection (ATCC) and used between passages 4-20 following thawing. H1299 and HCT-116 cells were maintained in RPMI 1640 containing 10% FBS, 100 units/mL penicillin and 100 µg/mL streptomycin; PC-3 cells were maintained in Kahn's Modification containing 10% FBS, 100 units/mL penicillin and 100 µg/mL streptomycin; and U2OS cells were maintained in DMEM containing 10% FBS, 100 units/mL penicillin and 100 µg/mL streptomycin.
as §4

Data set [3] relates to HCT-116 colon carcinoma. The description is as above. It is filed as cell-based. Conditions: 3-day exposure, HCT-116 cells, read-out: IC50 values (average ± S.D.) HCT-116.
Source text: as §1, §2, §5, §4

Data set [4] deals with H1299 lung carcinoma. The data set is described as above. Conditions: 3-day exposure, H1299 cells, read-out: IC50 values (average ± S.D.) H1299. It counts as cell-based.
Source text: as §1, §2, §5, §4

Data set [5] relates to A549 tumor xenografts. As to the kind of experiment: Human tumor xenograft growth inhibition in athymic nude mice. Conditions: 5X/week for 2 weeks; for Δ MTV / %T/C: recorded on day 24; for %T/C: * = p<0.05. It counts as in vivo. The method, then:
(§6) Utilizing this model, one can measure the ability of test compounds to inhibit the growth of human tumor xenografts growing subcutaneously (s.c.) in athymic nude mice. The histologic tumor type employed was MDA-MB-435 breast carcinoma for Ex.1 and 7 and A549 non-small cell lung carcinoma for Ex. 1-3.
A549 non-small cell lung carcinoma: Treatments were started 17 d post-implantation (1 x 10^7 cells/mouse), when a mean tumor volume of approximately 120 mm^3 was reached. Ex. 1-3 were administered iv on days 17-21 (followed by 2 d rest, then a second cycle of treatment on days 24-28). Total daily doses of 10 or 30 µmol/kg were administered as a single injection. Data in this table were recorded on day 24, 3 d after the last treatment of the first cycle. An asterisk (*) indicates p < 0.05 using a one-tailed Student's t-Test.
(§7) Toxicity was monitored by recording average group body weights twice weekly, and by daily observation of general health. Efficacy was monitored by taking measurements of tumor length, width, and depth weekly using digital calipers coupled to automated data collectors. Mean tumor volume (MTV) at initiation of therapy was subtracted from final MTV in order to express the actual tumor growth during treatment (A MTV). Anti-tumor activity was expressed as %T/C (A MTV of treated group ÷ Δ MTV of control group X100%). Statistical significance was evaluated using a one-tailed Student's t-test (p<0.05).
(In xenograft studies the graft and the host belong to different species.)

For data set [6], the system named is MDA-MB-435 tumor xenografts. Described as above. It counts as in vivo. Conditions: 3X/week for 3 weeks; for %T/C: * = p<0.05. As to the method:
as §6
MDA-MB-435 human breast carcinoma: Treatments were started 15 d post implantation (3 x 10^6 cells/mouse), when a mean tumor volume of approximately 45 mm^3 was reached. Ex.1 and 7 were administered iv at three times per week for 3 weeks (days 15, 17, 20, 22, 24, 27, 29, and 31), at 3.3, 10, and 33 µmol/kg. Doxorubicin was administered iv at 2 mg/kg using the same schedule. Each data point represents tumor growth (mean ± SEM), or body weight (mean), with an initial group size of n = 8, from a representative experiment performed twice. An asterisk (*) indicates p < 0.05 using a one-tailed Student's t-test.
as §7

For data set [7], the system named is A549 non-small cell lung carcinoma. Description: Anchorage Dependent Growth Monolayer Assay (ADGMA), MTS readout. Conditions: 3-day exposure, A549 cells, read-out: IC50 values (average ± S.D.) A549. It counts as cell-based, human.
Source text: as §1, §2, §3, §4

Read-outs that look alike come from different tables or passages of the source.

In general, IC50 refers to the point on the concentration scale where inhibition reaches its midpoint.

As for `CCCCCCCCCCOC(=O)O[C@@H]1CC[C@H](NC(=O)[C@H](OC)[C@H](O)[C@@H](O)[C@H](O)/C=C/C(C)(C)C)C(=O)NC1` [Ex. 1, (2R, 3R, 4S, 5R, 6E)-3,4,5-trihydroxy-2-methoxy-8,8-dimethyl-N-[(3S, 6R)-hexahydro-2-oxo-6-([[decyloxy]carbonyl]oxy)-2H-azepin-3-yl]non-6-enonamide], the IC50 in data set [1] (Homo sapiens, 72 h) was 210 ± 140 nM; in data set [2] (Homo sapiens, 72 h) it was more than 1000 nM; in data set [3] (Homo sapiens, 72 h), 530 ± 350 nM; in data set [4] (Homo sapiens, NCI-H1299, 72 h), 570 ± 220 nM. In addition, the Dead/Total in data set [5] (10 µmol/kg iv daily), in data set [5] (30 µmol/kg iv daily), in data set [6] (3.3 µmol/kg iv), in data set [6] (10 µmol/kg iv) and in data set [6] (33 µmol/kg iv) was 0/8 in each case. Besides, the “Δ MTV” value amounted to 95 mm^3 in data set [5] (10 µmol/kg iv daily); 39 mm^3 in data set [5] (30 µmol/kg iv daily); 132 mm^3 in data set [6] (3.3 µmol/kg iv); 162 mm^3 in data set [6] (10 µmol/kg iv); 79 mm^3 in data set [6] (33 µmol/kg iv). In addition, the “%T/C” value was 73% in data set [5] (10 µmol/kg iv daily); 30* % in data set [5] (30 µmol/kg iv daily); 74* % in data set [6] (3.3 µmol/kg iv); 90% in data set [6] (10 µmol/kg iv); 44* % in data set [6] (33 µmol/kg iv).

As to `CCCCCOC(=O)O[C@@H]1CC[C@H](NC(=O)[C@H](OC)[C@H](O)[C@@H](O)[C@H](O)/C=C/C(C)(C)C)C(=O)NC1` [Ex. 2, (2R, 3R, 4S, 5R, 6E)-3,4,5-trihydroxy-2-methoxy-8,8-dimethyl-N-[(3S, 6R)-hexahydro-2-oxo-6-([[pentyloxy]carbonyl]oxy)-2H-azepin-3-yl]non-6-enonamide], the IC50 in data set [1] is 70 ± 20 nM; in data set [2], 90 ± 30 nM; in data set [3], 170 ± 100 nM; in data set [4], 210 ± 170 nM; in data set [7] it was 117 ± 20 nM. The Dead/Total in data set [5] (10 µmol/kg iv daily) and in data set [5] (30 µmol/kg iv daily) was 0/8 each time. Moreover, the “Δ MTV” value in data set [5] (10 µmol/kg iv daily) came out at 42 mm^3; in data set [5] (30 µmol/kg iv daily) it was 60 mm^3. Moreover, the “%T/C” value in data set [5] (10 µmol/kg iv daily) is on record as 32* %; in data set [5] (30 µmol/kg iv daily), 46* %.

For `CO[C@@H](C(=O)N[C@H]1CC[C@@H](OC(=O)OCCc2ccccc2)CNC1=O)[C@H](O)[C@@H](O)[C@H](O)/C=C/C(C)(C)C` [Ex. 3, (2R, 3R, 4S, 5R, 6E)-3,4,5-trihydroxy-2-methoxy-8,8-dimethyl-N-[(3S, 6R)-hexahydro-2-oxo-6-([[2-phenylethoxy]carbonyl]oxy)-2H-azepin-3-yl]non-6-enonamide], the IC50 in data set [1] (Homo sapiens, 72 h) came out at 80 ± 30 nM; in data set [2] (Homo sapiens, 72 h) it was 310 ± 40 nM; in data set [3] (Homo sapiens, 72 h), 160 ± 30 nM; in data set [4] (Homo sapiens, NCI-H1299, 72 h), 330 ± 270 nM; in data set [7] (Homo sapiens, 72 h) it was 132 ± 20 nM. Moreover, the Dead/Total in data set [5] (10 µmol/kg iv daily) and in data set [5] (30 µmol/kg iv daily) was 0/8 in each case. The “Δ MTV” value is recorded as 106 mm^3 in data set [5] (10 µmol/kg iv daily) and 55 mm^3 in data set [5] (30 µmol/kg iv daily). The “%T/C” value in data set [5] (10 µmol/kg iv daily) was 82%; in data set [5] (30 µmol/kg iv daily) it was 42* %.

In the case of `CO[C@@H](C(=O)N[C@H]1CC[C@@H](OC(=O)OCC(C)(C)C)CNC1=O)[C@H](O)[C@@H](O)[C@H](O)/C=C/C(C)(C)C` [Ex. 5, (2R, 3R, 4S, 5R, 6E)-3,4,5-trihydroxy-2-methoxy-8,8-dimethyl-N-[(3S, 6R)-hexahydro-2-oxo-6-([[2,2-dimethylpropoxy]carbonyl]oxy)-2H-azepin-3-yl]non-6-enonamide], the IC50 in data set [1] (Homo sapiens, 72 h) turned out to be 120 ± 20 nM; in data set [2] (Homo sapiens, 72 h), 620 ± 160 nM; in data set [3] (Homo sapiens, 72 h), 270 ± 100 nM; in data set [4] (Homo sapiens, NCI-H1299, 72 h), 360 ± 120 nM; in data set [7] (Homo sapiens, 72 h) it was 138 ± 8 nM.

In the case of `CO[C@@H](C(=O)N[C@H]1CC[C@@H](OC(=O)OC2CCCCC2)CNC1=O)[C@H](O)[C@@H](O)[C@H](O)/C=C/C(C)(C)C` [Ex. 6, (2R, 3R, 4S, 5R, 6E)-3,4,5-trihydroxy-2-methoxy-8,8-dimethyl-N-[(3S, 6R)-hexahydro-2-oxo-6-([[cyclohexyloxy]carbonyl]oxy)-2H-azepin-3-yl]non-6-enonamide], the IC50 was found to be 350 ± 110 nM in data set [1] (Homo sapiens, 72 h); 770 ± 400 nM in data set [2] (Homo sapiens, 72 h); 400 ± 120 nM in data set [3] (Homo sapiens, 72 h); 570 ± 290 nM in data set [4] (Homo sapiens, NCI-H1299, 72 h); 441 ± 63 nM in data set [7] (Homo sapiens, 72 h).
